Experimental data taken from patent US9808433B2, “Combination of a centrally-acting analgesic and a selective cyclooxygenase-2 inhibitor anti-inflammatory agent for the treatment of inflammation and pain in the veterinary field” (FORMEVET S.R.L., priority 2010, dated 2017).

Columns and labels:
[1] = cited from earlier work
[2] = system: inflammatory oedema of the CFA-injected hind paw; experiment: Complete Freund adjuvant (CFA) induced paw inflammation (oedema) in the rat, plethysmometer; format: in vivo, Sprague-Dawley rats; conditions: for ml (inflamed paw/normal paw), intensity of oedema: day 3 after CFA, mean ± SD
Procedure: An inflammation model extensively used and validated in the rat was used for the study.
Sprague-Dawley rats weighing 200-250 grams were used. The animals were housed in groups of 4 to a cage, at the temperature of 22° C.±2° C., with a light-dark cycle of 12/12-hour and unlimited access to food and water. The animals were used after a week's acclimatisation in the housing facility. Each test group consisted of 8 rats.
Inflammation was induced in one limb of the rat by administering a suspension of complete Freund adjuvant (CFA) containing 0.1 mg/0.1 ml of inactivated mycobacterium tuberculosis (H37Ra, ATCC 25177), in paraffin oil and mannide monooleate. The CFA was injected into the plantar surface of the left hind paw of the rat. This method induces reproducible inflammation characterised by oedema and pain.
All the medicaments were administered 3 days after the inflammation was induced with CFA. The Firocoxib was resuspended in a carrier consisting of 0.5% methocel, and administered orally in the volume of 1 ml at the doses of 2.5 and 5 mg/Kg.
The dose of 2.5 mg/Kg was combined with Tramadol at the dose of 4 mg/Kg. Tramadol dissolved in saline was administered by the intraperitoneal route (i.p., 0.2 ml/100 grams of weight) 30 minutes […] the Firocoxib. Inflammatory oedema was evaluated 1 hour after the Tramadol, corresponding to 90 minutes after the Firocoxib. […] The control animals were treated per os with the carrier, and i.p. with the same volume of saline.
The intensity of the oedema was measured on day 3 after intraplantar administration of CFA, 90 minutes after Firocoxib, corresponding to 1 hour after i.p. administration of Tramadol. We chose to evaluate the oedema 3 days after it was induced, because it is largest at this time. The paw swelling (oedema) was evaluated by measuring the volume of both hind paws using a specific instrument, the plethysmometer (7150 plethysmometer, Basile, Comerio, Italy). The results are expressed as the algebraic difference between the volume in ml of the inflamed paw (injected with CFA) and the normal uninflamed paw: the greater the difference, the larger the oedema present.
The values are the mean±SD of 8/10 rats.
The significance of the anti-inflammatory activity was evaluated with the Analysis of Variance (ANOVA) test, followed by the Bonferroni multiple comparison test. ANOVA test is the most suitable statistical test when more than 2 treatment groups are present. It is a restrictive test because it takes account of the variability of all the trial groups.

COX-1 = biological target: T1, COX-1 (Canis lupus familiaris, UniProt Q8HZR1); conditions: dog, low therapeutic doses; cited from earlier work
T1 sequence (Q8HZR1 28-603): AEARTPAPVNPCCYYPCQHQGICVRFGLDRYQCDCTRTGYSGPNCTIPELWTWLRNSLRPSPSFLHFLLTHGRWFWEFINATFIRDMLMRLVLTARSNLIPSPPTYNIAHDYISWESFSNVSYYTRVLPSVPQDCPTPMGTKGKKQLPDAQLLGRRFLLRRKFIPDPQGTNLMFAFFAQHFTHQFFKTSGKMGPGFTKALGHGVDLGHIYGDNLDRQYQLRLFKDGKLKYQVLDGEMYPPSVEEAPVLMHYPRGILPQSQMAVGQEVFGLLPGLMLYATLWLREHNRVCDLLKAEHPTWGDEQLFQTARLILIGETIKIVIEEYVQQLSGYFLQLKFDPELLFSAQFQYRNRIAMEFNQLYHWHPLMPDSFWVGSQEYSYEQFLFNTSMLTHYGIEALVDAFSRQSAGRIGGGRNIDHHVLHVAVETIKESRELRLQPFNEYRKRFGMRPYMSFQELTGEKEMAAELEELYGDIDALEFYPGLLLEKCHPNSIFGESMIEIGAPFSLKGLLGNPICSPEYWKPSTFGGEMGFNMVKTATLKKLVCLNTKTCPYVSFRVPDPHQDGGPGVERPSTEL

COc1cccc(C2(O)CCCCC2CN(C)C)c1 (centres unmarked) [Tramadol]
bond with plasma proteins ([1]; in vivo): low | elimination half-life ([1]; in vivo): 1.5 to 7 h | time to peak plasma concentration ([1]; in vivo): ≤ 2 h | absorption after oral administration ([1]; oral, regardless of the formulation used): very good absorption | anti-inflammatory effect (in words) ([2]; Tramadol 4 mg/kg alone): no anti-inflammatory effect | ml (inflamed paw/normal paw), intensity of oedema ([2]; Tramadol 4 mg/kg i.p. alone, 60 min after Tramadol): 0.80 ± 0.06 mL

CC1(C)OC(=O)C(OCC2CC2)=C1c1ccc(S(C)(=O)=O)cc1 [Firocoxib]
inhibition of COX-1 (in words) (COX-1): do not significantly inhibit COX-1 | anti-inflammatory effect (in words) ([2]; Firocoxib 2.5 mg/kg alone): completely lost its anti-inflammatory effect | ml (inflamed paw/normal paw), intensity of oedema ([2]; Firocoxib 2.5 mg/kg p.o. alone, 90 min after Firocoxib): 0.83 ± 0.05 mL | ml (inflamed paw/normal paw), intensity of oedema ([2]; Firocoxib 5 mg/Kg p.o. alone, 90 min after Firocoxib, p < 0.01 vs saline): 0.42 ± 0.08 mL | inhibition at 5 mg/kg ([2]; Rattus norvegicus, Firocoxib 5.0 mg/kg alone): ~50%
